Tests used:
[1] = parameters: method as in PMID 14194764; details: after 6 days’ dietary exposure to DDT (1500 μg/g); cited from earlier work
[2] = tested on: aquatic life; parameters: method as in earlier work; details: Canadian Sediment Quality Guidelines for the protection of aquatic life; cited from earlier work
[3] = Elimination of DDTs from carp and carp tissues/organs after transfer to un-spiked sediment; format: in vivo, Cyprinus carpio; details: for percentage eliminated from brain: carp brain; for percentage eliminated from brain / percentage eliminated from kidney: end of experiments; for elimination percentage from gallbladder: carp gallbladder; for elimination percentage in heart: carp heart; for percentage eliminated from kidney: carp kidney
Experimental: (§1) Environmentally relevant concentration exposure was conducted according to Organization for Economic Cooperation and Development (OECD section 305 and 315) test guidelinesn, [52]. Tubifex tubifex (Oligochaeta, Tubificidae) was chosen as prey, which could accumulate DDTs from sediment and transfer them to carp (Cyprinus carpio). T. tubifex is one of the most widespread and ubiquitous groups, which was considered to be a good bio-indicator[53], [54]. Carp are omnivorous demersal fish in fresh water ecosystems, which can serve as bio-indicators of environmental contaminants and play significant roles in assessing potential risk[44]. Adult T. tubifex and carp (2.0 ± 0.2 g, about 5 cm in length, ignore the gender) were obtained from Guan Yuan market (Beijing, China) and acclimatized in the laboratory for 2 weeks. T. tubifex (80 g) and ten fish were added into the sediment-water system for the exposure experiment. Twenty-seven glass aquariums with spiked sediment were cultivated at 14 h/10 h photoperiods and at 20 ± 2 °C for 28 days (nine aquariums were used to analyze the individual fish and T. tubifex worms, eighteen aquariums were used to analyze the tissue distribution and toxic effects). The overlying water was gently aerated and unchanged. Overlying water, fish (one from each aquariums), worms (about 1 g) and sediment were sampled on the 1st, 3ed, 5th, 9th, 14th, 21st, and 28th day. At the end of bioaccumulation experiments, all the fish and worms were transferred to un-spiked sediment for elimination experiments, respectively. Overlying water, fish (one from each aquariums), worms (about 1 g) and sediment were sampled on the 1st, 3ed, 5th, 7th, and 10th day. […] Fish were euthanized with an ice/water mixture.
(§2) The different tissues/organs of carp were extracted with different methods. Details of the extraction process please refer to the Supplementary Material. The lipid content of animals was measured according to Bligh and Dyer[55]. […] Details please refer to the Supplemental Material.

[4] = Bioaccumulation of DDTs in carp and carp tissues/organs in DDT spiked-sediment microcosm (food web); format: in vivo, Cyprinus carpio; details: treatment group; for concentration at 28 days / concentration at 9 day: Cyprinus carpio (carp), other: spiked sediment-water system with T. tubifex as prey; for concentration at 28 days: brain, end of the experiments; for concentration at 9 day: whole fish (wet weight), whole carp, read-out: concentration in carp at steady state; for maximum concentration in gastrointestinal tract: first 5 days
Experimental: (§3) The sediment was prepared in a glass aquarium with 3.6 kg soil (collected from China Agricultural University, and the physicochemical properties of the soil were as follows: clay, 34.8 ± 0.1%; silt, 10.0 ± 2.8%; sand, 55.2 ± 2.8%; organic matter, 24.4 ± 0.8 g/kg; and pH, 7.74 ± 0.05.) and 16 L de-chlorinated tap water, and incubated for seven days. The overlying water was discarded, and 400 g sediment (dry weight) was spiked with o,p’-DDT (50 ng/μL, 1600 μL) and p,p’-DDT (50 ng/μL, 1600 μL) in acetone. After the solvent was volatilized, the sediment was blended with the 3.6 kg sediment (dry weight) thoroughly. Dechlorinated tap water was added, and system was allowed to equilibrate for 48 h.
as §1, with “Tubifex tubifex (Oligochaeta, Tubificidae) was chosen as prey, which could accumulate DDTs from sediment and transfer them to carp (Cyprinus carpio).” left out
as §2

[5] = Elimination of DDTs in T. tubifex after transfer to un-spiked sediment; format: in vivo; details: elimination experiment in un-spiked sediment
Experimental: as §1, §2

[6] = Bioaccumulation of DDTs in T. tubifex in DDT spiked-sediment microcosm; format: in vivo; details: for maximum concentration in T. tubifex / concentration at 28 day: treatment group; for maximum concentration in T. tubifex: fifth day; for concentration at 28 day: Tubifex tubifex, whole worm (wet weight), other: exposure in spiked sediment-water system, day 28
Experimental: as §3, §1
The control treatments (twenty-seven glass aquariums: nine aquariums were used to analyze the individual fish and T. tubifex worms, eighteen aquariums were used to analyze the tissue distribution and toxic effects) were composed of worms, fish and un-spiked sediment. The cultivation, sample time and dissection procedures were the same to the exposure experiments.
as §2

[7] = rainbow trout exposed in water; cited from earlier work

## Clc1ccc(C(c2ccc(Cl)cc2)C(Cl)(Cl)Cl)cc1 [DDT, Dichlorodiphenyltrichloroethane]
[1]
  ratio DDT:DDD:DDE detected in the livers of rats: approximately 3
[2]
  effects range-low (ERL) value in sediments: 1 ng/g

## Clc1ccc(C(c2ccccc2Cl)C(Cl)Cl)cc1 (centres unmarked) [o,p’-DDD]
[3]
  percentage eliminated from brain: 65.5%
  elimination percentage from gallbladder: 66.9%
  elimination percentage in heart: 72.5%
  percentage eliminated from kidney: 65.4%
[4]; carp
  concentration at 28 days: 45.7 ± 0.3 ng/g
[4]; carp, 28th day
  maximum concentration in kidney: 73.5 ± 1.9 ng/gwwt
[5]
  elimination efficiency in T. tubifex: 49.0%

## ClC(Cl)=C(c1ccc(Cl)cc1)c1ccccc1Cl [o,p’-DDE]
[3]
  percentage eliminated from brain: 55.0%
  elimination percentage from gallbladder: 24.1%
  percentage eliminated from kidney: 47.5%
[4]; carp, 9th day
  concentration in brain (maximum): 3.1 ± 0.1 ng/gwwt
[6]
  maximum concentration in T. tubifex: 2.1 ± 0.2 ng/gwwt
[5]
  elimination efficiency in T. tubifex: 39.5%

## Clc1ccc(C(c2ccccc2Cl)C(Cl)(Cl)Cl)cc1 (centres unmarked) [o,p’-DDT]
[3]
  elimination percentage in heart: 51.9%
[4]; 9th day
  concentration at 9 day: 39.1 ± 0.3 ng/g
[4]; carp, 9th day
  concentration in brain (maximum): 40.3 ± 1.8 ng/gwwt
  maximum concentration in kidney: 96.2 ± 2.0 ng/gwwt
[4]; carp
  maximum concentration in gastrointestinal tract: 40.9 ± 0.9 ng/gwwt
[6]
  concentration at 28 day: 5.6 ± 0.1 ng/g
  maximum concentration in T. tubifex: 74.6 ± 1.8 ng/gwwt
[5]
  elimination efficiency in T. tubifex: 65.7%

## Clc1ccc(C(c2ccc(Cl)cc2)C(Cl)Cl)cc1 [p,p’-DDD]
[3]
  percentage eliminated from brain: 61.4%
  elimination percentage from gallbladder: 64.1%
  elimination percentage in heart: 69.6%
  percentage eliminated from kidney: 63.9%
[4]; carp
  concentration at 28 days: 68.4 ± 0.6 ng/g
[4]; carp, 28th day
  maximum concentration in kidney: 89.9 ± 3.7 ng/gwwt
[5]
  elimination efficiency in T. tubifex: 58.2%

## ClC(Cl)=C(c1ccc(Cl)cc1)c1ccc(Cl)cc1 [p,p’-DDE]
[3]
  percentage eliminated from brain: 52.8%
  elimination percentage from gallbladder: 50.8%
  elimination percentage in heart: 59.9%
  percentage eliminated from kidney: 48.7%
[4]; carp
  concentration at 28 days: 41.6 ± 0.5 ng/g
[4]; carp, 21st day
  highest concentration in kidney: 46.9 ± 0.6 ng/gwwt
  maximum concentration in muscle: 11.7 ± 2.6 ng/gwwt
[6]; control group (un-spiked sediment), 14th day
  maximum concentration in T. tubifex, control group: 28.2 ± 1.1 ng/gwwt
[6]
  maximum concentration in T. tubifex: 21.7 ± 0.8 ng/gwwt
[5]
  elimination efficiency in T. tubifex: 25.7%

## Clc1ccc(C(c2ccc(Cl)cc2)C(Cl)(Cl)Cl)cc1 [p,p’-DDT]
[4]; 9th day
  concentration at 9 day: 57.3 ± 3.1 ng/g
[4]; carp, 9th day
  concentration in brain (maximum): 49.1 ± 1.0 ng/gwwt
  maximum concentration in kidney: 124.0 ± 2.6 ng/gwwt
[4]; carp
  maximum concentration in gastrointestinal tract: 43.2 ± 0.5 ng/gwwt
[6]
  concentration at 28 day: 18.4 ± 2.2 ng/g
  maximum concentration in T. tubifex: 165.5 ± 2.7 ng/gwwt
[5]
  elimination efficiency in T. tubifex: 73.6%

## Oc1c(Cl)c(Cl)c(Cl)c(Cl)c1Cl [pentachlorophenol]
[7]
  dose eliminated in feces and bile: 30%
  dose eliminated in urine: 20%
  dose eliminated through the gills: 50%

Reference: PMC5442124 (Scientific Reports, 2017)
